Target: T1, P-glycoprotein (P-gp) (Homo sapiens, UniProt P08183)
T1 construct: In-vitro Caco-2 cell monolayers were used here as a model for potential drug absorption related problems and P-gp mediated transport of drugs; endogenous in cells; host or cells: Caco-2 (human colon carcinoma, ATCC)
Assay: Bidirectional transport of rhodamine123 through Caco-2 monolayers co-incubated with antimalarials (P-gp inhibitory properties)
Assay type: in vitro ADME
Conditions: at 100 μM
Method: The Caco-2 cells were seeded on 0.6 cm^2 […] Millipore PCF™ filter inserts at the cell density of 65,000 cells/cm^2 as done previously in the lab. Briefly, the cells were grown for 21–24 days to allow full maturation and formation of tight monolayers. The initial experiments were conducted in mid-40s passage cells and repeated in early 80s passage Caco-2 cells. The Trans epithelial electrical resistance (TEER) was measured immediately before and after the experiment using an epithelial voltage/ohm meter and an ENDOHM 12 chamber (World precision instruments, Sarasota, FL). TEER values were measured both before and after the study with readings above 300 Ω.cm^2 considered as acceptable for tight junctions. […] In order to maintain equivalent transport medium (HBSS/HBSS with inhibitor) level both outside and inside the chambers, 300 μL was used as medium in the apical chambers and 600 μL in the basolateral chambers. […] Drugs were co-incubated with MRCP, BCRP and ATP hydrolysis blockers to determine the involvement of other efflux mechanisms. Prior to the experiment, the transport medium, HBSS or HBSS with P-gp inhibitors were pre-incubated with the cells for 30 minutes. Following incubation, inserts were placed in new well plates and donor chamber is replaced with drug or drug with inhibitor and the receiver chamber with blank HBSS or HBSS with inhibitor. Transport medium was collected from the receiver chamber after stirring at time intervals of 30, 60, 90 and 120 minutes and was replaced with the same volume of fresh HBSS, or HBSS with inhibitor, when P-gp inhibitors were used in the study. At the end of the experiment 100 μL of medium was removed from the donor chamber in addition to medium collected from the receiver chamber during the study. The cells were then washed thoroughly in cold (4°C) PBS and cell membranes attached to the inserts were sonicated for 10 minutes in a sonicating water bath and centrifuged at 10,000 g for 10 minutes. Supernatant was frozen at -80°C until assayed. The Papp values of three well plates were determined using methods modified from Artursson’s group as described by Crowe and Lemaire.
CL.vol=Aa/{[Cd0×Vd−[Aa+(Ca×Vs)]−(Ac)×n/nfin]/Vd}
CL.vol = clearance volume (mL), n = time (min), Aa = amount in acceptor compartment at time n (pmols), Cd0 = concentration in donor compartment at time zero (nM), Vd = volume of the donor compartment (mL), Ca = concentration in acceptor compartment at the previous time point (nM), Vs = sample volume of previous time point (mL), Ac = amount of compound associated with the cells (pmol), Nfin = final time point (min). Papp = Apparent permeability (cm/sec) Rate of clearance (mL/min)=CL.vol / n Papp (cm/sec)=Rate of clearance / Surface area (cm^2)
The cleared volume was plotted against time and the slope of the regression line was divided by the surface area to obtain the Papp values. […] Mean Papp for Bas-Ap direction was divided by the Ap-Bas direction to obtain the efflux ratio and values above two were considered as drugs having true efflux transport.

T1 sequence (P08183 whole entry): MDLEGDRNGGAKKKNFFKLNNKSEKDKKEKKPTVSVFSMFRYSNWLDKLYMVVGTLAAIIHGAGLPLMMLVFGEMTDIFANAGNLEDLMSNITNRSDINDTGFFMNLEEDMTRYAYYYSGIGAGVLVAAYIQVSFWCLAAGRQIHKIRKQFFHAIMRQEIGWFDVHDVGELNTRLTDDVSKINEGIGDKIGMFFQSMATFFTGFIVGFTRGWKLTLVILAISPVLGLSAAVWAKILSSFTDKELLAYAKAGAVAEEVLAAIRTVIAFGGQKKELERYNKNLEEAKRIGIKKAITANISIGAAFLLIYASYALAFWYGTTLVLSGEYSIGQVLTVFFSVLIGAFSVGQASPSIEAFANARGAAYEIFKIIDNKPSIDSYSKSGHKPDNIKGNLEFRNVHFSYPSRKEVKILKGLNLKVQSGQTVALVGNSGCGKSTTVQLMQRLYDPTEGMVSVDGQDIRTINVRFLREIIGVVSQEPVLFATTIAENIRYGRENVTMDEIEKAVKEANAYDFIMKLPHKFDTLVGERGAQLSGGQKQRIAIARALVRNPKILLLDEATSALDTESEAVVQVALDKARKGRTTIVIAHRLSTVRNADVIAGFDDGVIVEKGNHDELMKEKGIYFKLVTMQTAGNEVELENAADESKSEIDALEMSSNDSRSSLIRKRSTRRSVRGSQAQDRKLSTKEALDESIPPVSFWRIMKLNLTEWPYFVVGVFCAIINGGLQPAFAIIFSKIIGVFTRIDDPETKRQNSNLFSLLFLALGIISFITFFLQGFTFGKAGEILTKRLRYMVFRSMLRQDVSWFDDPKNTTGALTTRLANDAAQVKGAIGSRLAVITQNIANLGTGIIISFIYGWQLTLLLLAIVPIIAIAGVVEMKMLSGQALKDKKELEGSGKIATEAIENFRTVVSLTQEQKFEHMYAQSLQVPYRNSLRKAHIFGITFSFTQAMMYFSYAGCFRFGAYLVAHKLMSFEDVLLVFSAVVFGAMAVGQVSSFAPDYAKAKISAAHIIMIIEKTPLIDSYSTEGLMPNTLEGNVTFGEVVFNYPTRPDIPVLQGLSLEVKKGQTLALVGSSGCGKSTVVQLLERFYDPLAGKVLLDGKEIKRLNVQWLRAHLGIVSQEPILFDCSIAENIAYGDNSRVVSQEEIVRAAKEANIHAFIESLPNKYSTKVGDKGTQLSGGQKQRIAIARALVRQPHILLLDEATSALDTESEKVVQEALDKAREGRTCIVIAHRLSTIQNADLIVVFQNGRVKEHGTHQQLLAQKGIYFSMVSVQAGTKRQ

## OC(c1cc(C(F)(F)F)nc2c(C(F)(F)F)cccc12)C1CCCCN1 (centres unmarked) [MQ, mefloquine]
  P-gp inhibitory properties: P-gp inhibitory properties
human, Caco-2 cell monolayers, probe rhodamine 123, read-out: inhibition of efflux driven transport
  inhibition at 120 min, 100 µM: ~50%

— PMC4821601, “The Interactions of P-Glycoprotein with Antimalarial Drugs, Including Substrate Affinity, Inhibition and Regulation” (PLoS ONE, 2016)
